Reference: patent US20220296557A1, “COMBINATIONS OF BCL-2/BCL-XL INHIBITORS AND RELATED USES” (Ascentage Pharma (Suzhou) Co., Ltd., priority 2020, published 2022)

How the values were obtained:
Type in all cases: cell-based
BON-1 = assay: Cell viability/CTG assay, BON-1; conditions: BON-1 cell line; CTG assay, 72 hr; values approximate; read-out: IC (μM, CTG assay: 72 hr)
Procedure: (§1) FIGS. 3A and 3B are a set of graphs showing the cell viability/CTG assays for NEN cell lines treated with BCL-2/xL inhibitor Compound No. 2 (an active metabolite of Compound No. 1)(FIG. 3A) or ABT-263 (FIG. 3B).
(§2) The activity of Compound No. 2 (an active metabolite of Compound No. 1) in overcoming apoptotic blockade in neuroendocrine neoplasm was tested, alone or in comparison with ABT-263.

QGP-1 = assay: Cell viability/CTG assay, QGP-1; conditions: QGP-1 cell line; CTG assay, 72 hr; values approximate; read-out: IC (μM, CTG assay: 72 hr)
Procedure: as §1, §2

NCI-H727 = assay: Cell viability/CTG assay, NCI-H727; conditions: Homo sapiens; NCI-H727 cell line; CTG assay, 72 hr; values approximate; read-out: IC (μM, CTG assay: 72 hr)
Procedure: as §1, §2

NCI-H460 = assay: Cell viability/CTG assay, NCI-H460; conditions: Homo sapiens; NCI-H460 cell line; CTG assay, 72 hr; values approximate; read-out: IC (μM, CTG assay: 72 hr)
Procedure: as §1, §2

β-TC3 = assay: Cell viability/CTG assay, β-TC3; conditions: β-TC3 cell line; CTG assay, 72 hr; values approximate; read-out: IC (μM, CTG assay: 72 hr)
Procedure: as §1, §2

MIN-6 = assay: Cell viability/CTG assay, MIN-6; conditions: Mus musculus, MIN6; MIN-6 cell line; CTG assay, 72 hr; values approximate; read-out: IC (μM, CTG assay: 72 hr)
Procedure: as §1, §2

NEN cell lines = assay: NEN cell viability (general statement); conditions: FIGS. 3A and 3B
Procedure: as §1, §2

BCL-xL:BIM complex = molecular target: T1, BCL-xL:BIM complex (Homo sapiens, UniProt Q07817); assay: BCL-2 family member complex intensity: BCL-xL:BIM; conditions: BON-1 and QGP-1 treated with BCL-2/xL inhibitors; FIG. 4A
T1 construct: High expression of BCL-xL protein was found in NEN cell lines; endogenous in cells; host or cells: BON-1 and QGP-1 (printed QGP-I) NEN cell lines
From the text: (§3) FIGS. 4A-4C are a set of graphs showing the BCL-2 family member complex intensity in BON-1 and QGP-I treated with BCL-2/xL inhibitors (FIG. 4A: BCL-xL:BIM complex, FIG. 4B: BCL-xL:PUMA complex; and FIG. 4C: BAX:BAK protein complexes).

BAX:BAK complex = assay: BCL-2 family member complex intensity: BAX:BAK; conditions: BON-1 and QGP-1 treated with BCL-2/xL inhibitors; FIG. 4C
From the text: as §3

T1 sequence (Q07817 whole entry, one chain of several): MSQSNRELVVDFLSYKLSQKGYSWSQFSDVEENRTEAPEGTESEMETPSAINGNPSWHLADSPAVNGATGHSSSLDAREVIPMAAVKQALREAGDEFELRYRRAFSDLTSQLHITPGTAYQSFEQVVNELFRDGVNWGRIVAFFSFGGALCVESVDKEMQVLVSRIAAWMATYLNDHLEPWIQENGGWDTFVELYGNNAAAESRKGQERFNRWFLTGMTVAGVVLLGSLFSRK

SMILES	IC50 (BON-1) [µM]	IC50 (QGP-1) [µM]	IC50 (NCI-H727) [µM]	IC50 (NCI-H460) [µM]	IC50 (β-TC3) [µM]	IC50 (MIN-6) [µM]	NEN cell viability (NEN cell lines)	BCL-xL:BIM complex (BCL-xL:BIM complex)	BAX:BAK complex (BAX:BAK complex)
CC1(C)CCC(c2ccc(Cl)cc2)=C(CN2CCN(c3ccc(C(=O)NS(=O)(=O)c4ccc(N[C@H](CCN5CCOCC5)CSc5ccccc5)c(S(=O)(=O)C(F)(F)F)c4)cc3)CC2)C1 [ABT-263, 4-(4-{[2-(4-Chlorophenyl)-5,5-dimethyl-1-cyclohexen-1-yl]methyl}-1-piperazinyl)-N-[(4-{[(R)-4-(4-morpholinyl)-1-(phenylsulfanyl)-2-butanyl]amino}-3-[(trifluoromethyl)sulfonyl]phenyl)-sulfonyl]benzamide, reference compound]	0.91	≥ 10	3.74	71	1.12	5.56			
Cc1c(S(C)(=O)=O)c(-c2cc(F)cc(N3CCN(c4ccc(NS(=O)(=O)c5ccc(N[C@H](CCN6CCC(C(=O)O)CC6)CSc6ccccc6)c(S(=O)(=O)C(F)(F)F)c5)cc4)CC3)c2)c(-c2ccc(Cl)cc2)n1C(C)C [Compound No. 2]	0.43	3.78	3.79	≥ 10	0.55	2.07	inhibits the NEN cell viability	decreases BCL-xL:BIM complex	increases BAX:BAK complex
